Laboratory results reported in patent US20080260807A1, “Water-Soluble Films Comprising Nicotine” (Bio Progress Technology Limited, priority 2005, published 2008).

How the values were obtained:
[1] = aqueous solution of hydroxyl ethyl cellulose, Pullulan, polyvinyl pyrollidone and propylene glycol alginate, cast to thin film
Excerpt: Alternatively, films of the present invention can be made by dissolving NBD in an aqueous solution of hydroxyl ethyl cellulose, Pullulan, polyvinyl pyrollidone (“PVP”), and propylene glycol alginate (“POGA”). This solution can then be cast to form thin films of the present invention. […] Films made according to the process, in addition to comprising embodiments of the present invention, can be used as the base water-soluble film to which the fluid comprising nicotine is applied. Further, or in the alternative, the aqueous solution thus described can comprise the fluid comprising nicotine for application to the base water-soluble film.

[2] = in water or alcohol; cited from earlier work

Compound: CN1CCCC1c1cccnc1.O.O.O=C(O)C(O)C(O)C(=O)O (centres unmarked) [Nicotine Bitartrate Dihydrate, nicotine bitartrate dihydrate]
- Crystallisation during formation of the film [1]: does not crystallize

Compound: CN1CCCC1c1cccnc1 (centres unmarked) [Nicotine]
- Solubility [2]: Soluble in water
